Measured values as given in patent US6890944B2, “Organic acid salt of amlodipine” (priority 2002, dated 2005).
Where two headings read alike, the source gives them in different places.

Assays:
Type in all cases: physicochemical
[1] = Chemical stability in solid state, accelerated test at 60° C. (HPLC content)
[2] = Test for light stability: aqueous solutions stored at 25° C. for 4 weeks exposed to sunlight (HPLC); conditions: 25° C. sunlight; for Content (HPLC): aqueous solution, stored for 4 weeks; for colour change: light stability test, 4 weeks
Protocol: The resulting aqueous solutions were stored at 25° C. for 4 weeks while being exposed to sunlight. A measurement was made of the contents of the salts with resort to HPLC under the same conditions as in the chemical stability test.

[3] = Test for solubility in various solvents; conditions: based on weight of amlodipine, note: dissolved at 37° C.
[4] = Test for hygroscopicity: water content (K.F. water %) at 25° C. at different humidity levels; conditions: for water content (K.F. water %): 25° C.
[5] = Chemical stability in aqueous state, stored at 25° C. for 4 weeks in complete darkness (HPLC); conditions: in distilled water
Protocol: The resulting aqueous solutions were stored at 25° C. for 4 weeks in complete darkness, after which a measurement was made of the contents of the salts with resort to HPLC under the same conditions as in the solid state.

Question: What does the source list for `CCOC(=O)C1=C(COCCN)NC(C)=C(C(=O)OC)C1c1ccccc1Cl.O=C(O)Cc1ccc(O)cc1` (centres unmarked) [amlodipine p-hydroxyphenylacetate]?
Answer: HPLC content ([1]; 1 week): 99.6%; HPLC content ([1]; 2 weeks): 99.5%; HPLC content ([1]; 4 weeks): 99.4%; HPLC content ([1]; initial): 99.7%; Content (HPLC) [2]: 98.9%; colour change [2]: kept its original white color; solubility ([3]; Dist. Water, 25° C. (text), listed as p-Hydroxyphenylacetate): 3000 µg/mL; solubility ([3]; buffer pH 6, ionic strength 0.2, 25 °C, pH 6, aqueous buffer, pH 6, ionic strength 0.2 buffer, 25° C., read-out: solubility): 2200 µg/mL; solubility ([3]; buffer pH 7, ionic strength 0.2, 25 °C, pH 7, aqueous buffer, pH 7, ionic strength 0.2 buffer, 25° C., read-out: solubility): 1100 µg/mL; solubility ([3]; pH 2, ionic strength 0.2 buffer, 25° C. (text), listed as p-Hydroxyphenylacetate): 8900 µg/mL; solubility ([3]; pH 4, ionic strength 0.2 buffer, 25° C. (text), listed as p-Hydroxyphenylacetate): 8800 µg/mL; solubility ([3]; pH 7.4, ionic strength 0.2 buffer, 25° C. (text), listed as p-Hydroxyphenylacetate): 4000 µg/mL; solubility ([3]; pH 8, ionic strength 0.2 buffer, 25° C. (text), listed as p-Hydroxyphenylacetate): 3000 µg/mL; water content (K.F. water %) ([4]; 25% RH, 1 week, listed as p-hydroxyphenylacetate): 0.08%; water content (K.F. water %) ([4]; 60% RH, 1 week, listed as p-hydroxyphenylacetate): 0.1%; water content (K.F. water %) ([4]; 75% RH, 1 week, listed as p-hydroxyphenylacetate): 0.14%; water content (K.F. water %) ([4]; 90% RH, 1 week): 0.17%; water content (K.F. water %) ([4]; Initial, listed as p-hydroxyphenylacetate): 0.15%; hygroscopicity ([4]; relative humidity 95%): ≤ 0.5%; decomposition products / content change (HPLC) [5]: neither decomposition products nor content change is found

Question: What does the source list for `CCOC(=O)C1=C(COCCN)NC(C)=C(C(=O)OC)C1c1ccccc1Cl` (centres unmarked) [Besylate, amlodipine besylate, reference compound]?
Answer: HPLC content ([1]; 1 week): 99.6%; HPLC content ([1]; 2 weeks): 99.4%; HPLC content ([1]; 4 weeks): 99.2%; HPLC content ([1]; initial): 99.6%; Content (HPLC) [2]: 82.5%; colour change ([2]; listed as amlodipine besylate): turned yellow from white; solubility ([3]; Dist. Water, 25° C. (text)): 1290 µg/mL; solubility ([3]; pH 2, ionic strength 0.2 buffer, 25° C. (text)): 1290 µg/mL; solubility ([3]; pH 4, ionic strength 0.2 buffer, 25° C. (text)): 1320 µg/mL; solubility ([3]; pH 6, ionic strength 0.2 buffer, 25° C.): 1280 µg/mL; solubility ([3]; pH 7, ionic strength 0.2 buffer, 25° C.): 640 µg/mL; solubility ([3]; pH 7.4, ionic strength 0.2 buffer, 25° C. (text)): 1350 µg/mL; solubility ([3]; pH 8, ionic strength 0.2 buffer, 25° C. (text)): 1250 µg/mL; water content (K.F. water %) ([4]; 25% RH, 1 week): 0.10%; water content (K.F. water %) ([4]; 60% RH, 1 week): 0.09%; water content (K.F. water %) ([4]; 75% RH, 1 week): 0.15%; water content (K.F. water %) ([4]; Initial): 0.14%

Question: For `CCOC(=O)C1=C(COCCN)NC(C)=C(C(=O)OC)C1c1ccccc1Cl.Cc1ccc(S(=O)(=O)O)cc1` (centres unmarked) [Tosylate, Amlodipine Para-toluenesulfonate], which “Content (HPLC)” value [2] is on record?
Answer: 72.0%
